In patent US20240415820A1, “COMBINATIONS FOR RETAINING FOLLICLES RESERVE” (SHEBA IMPACT LTD., priority 2021, published 2024):

Legend:
[1] = test system: primordial follicles (PMF); assay: In vivo mouse model of Cy-induced follicle depletion, follicle counting (H&E)
Protocol: Ovaries removed 12 h, 24h, 3 days or 21 days following Cy treatment were fixed in PFA, paraffin-embedded and serially sectioned (5-μm).
Follicle counting: H&E staining was used for differential follicle counts in ovaries removed 3 and 21 days following Cy treatment and conducted as previously described. […] Atretic follicles were not calculated. Only follicles with non-atretic and healthy granulosa cells were counted for total number

primary follicles = assay: Proliferation assay, Ki-67 staining of primary follicles; assay type: in vivo, mouse
Protocol: Mild proliferation: 1-2 granulosa cells per follicle stained for Ki-67. Extensive proliferation: 3 or more granulosa cells per follicle stained for Ki-67. An average number of primary follicles stained in each category in 2-3 sections per ovary was calculated.

rpS6 = assay: Western blotting of whole ovaries, prpS6/rpS6; assay type: in vivo, mouse; conditions: whole ovaries 24 hours after Cy 150 mg/kg, alone or co-treated
mTOR = assay: Western blotting of whole ovaries, pmTOR/mTOR; assay type: in vivo, mouse; conditions: whole ovaries 24 hours after Cy 150 mg/kg, alone or co-treated
PMF oocytes [2] = assay: DNA damage assay, γH2AX staining; assay type: in vivo, mouse; conditions: ovaries removed 12 h after Cy, alone or co-treated; FIG. 7A
Protocol: BALB/c female mice aged 12 days or 8 weeks (Envigo, Israel) were given a single intraperitoneal injection of 200 μl of PBS or an equal volume of 150 mg/kg Cy (Sigma-Aldrich), 5 mg/kg temsirolimus (Selleck Chemicals; 5 doses in 7 days before Cy treatment, Bozec et al., 2011; Wan et al., 2006) or 5 μg/mouse human C-terminus recombinant AMH (rAMH R&D Systems), 5 doses in 24 hours—every 6 hours following the administration of Cy (Roness et al., 2019). Ovaries were collected either 12 or 24 hours after Cy treatment for protein analysis and histochemical staining, and 3 or 21 days after Cy treatment for H&E staining and follicle counts. Ovaries were removed and placed immediately into either RNA later solution or 4% paraformaldehyde. All procedures were approved by the Institutional Animal Care and Use Institutional Ethics Committee.
DNA damage assay: Sample sections (5μ) from ovaries removed 12h after Cy treatment were stained for DNA damage evaluation with γH2AX antibody, and all the PMF oocytes were classified as positive/negative for DNA damage. Oocytes were counted from 6-8 ovaries and the ratio of stained oocytes to total oocytes was calculated.

PMF oocytes [3] = assay: Apoptosis assay, cPARP staining; assay type: in vivo, mouse; conditions: ovaries removed 24 h after Cy, alone or co-treated; FIG. 7B
Protocol: Apoptosis assay: Sample sections (5μ) from ovaries removed 24h after Cy treatment were stained for apoptotic marker cPARP antibody, and all the PMF oocytes were classified as positive/negative for apoptosis. Oocytes were counted from 6-8 ovaries and the ratio of stained oocytes to total oocytes was calculated.

[4] = 3 cycles of mating after Cy, alone or co-treated
[5] = test system: primordial follicles (PMF); assay: Ex vivo culture of neonatal mouse ovaries with PM, PMF counting (H&E); assay type: cell-based; conditions: ex vivo ovaries of 12 days mice, PM 4 hours, with or without 400 nM Tem; FIG. 2A
[6] = Cy 150 mg/kg, with or without Tem, FIG. 3B

O=P1(N(CCCl)CCCl)NCCCO1 (stereo not shown) [Cy, cyclophosphamide]
PMF loss ([1]; mouse, in vivo): 77%
PMFs 3 days after Cy treatment ([1]; mouse, in vivo): 59.5±2.7
number of PMFs three weeks after treatment ([1]; mouse, in vivo): 32±2.12
ratio between growing and dormant follicles ([1]; mouse, in vivo): 1.31
total number of growing follicles 3 days after Cy treatment ([1]; mouse, in vivo): 78.5±6.1
Granulosa cells in primary follicles, Extensive proliferation (primary follicles; mouse, in vivo): 21%
Granulosa cells in primary follicles, Mild proliferation (primary follicles; mouse, in vivo): 63%
Granulosa cells in primary follicles, No proliferation (primary follicles; mouse, in vivo): 16%
primary follicles classified as proliferating (either mild or extensive proliferation) (primary follicles; mouse, in vivo): 84%
relative band intensity of phosphorylated rpS6 (prpS6/rpS6 ratio) (rpS6): 1.88
relative band intensity of phosphorylated mTOR (pmTOR/mTOR ratio) (mTOR): 1.44
PMF oocytes stained positive for γH2AX (DNA damage) (PMF oocytes [2]): more than 90%
PMF oocytes stained positive for cPARP (apoptosis) (PMF oocytes [3]): 22%
mean litter size [4]: 4.62

CO[C@H]1C[C@@H]2CC[C@@H](C)[C@@](O)(O2)C(=O)C(=O)N2CCCC[C@H]2C(=O)O[C@H]([C@H](C)C[C@@H]2CC[C@@H](OC(=O)C(C)(CO)CO)[C@H](OC)C2)CC(=O)[C@H](C)/C=C(\C)[C@@H](O)[C@@H](OC)C(=O)[C@H](C)C[C@H](C)/C=C/C=C/C=C/1C [Tem, Temsirolimus]
PMFs on day 7 of culture [5]: 124±5.9
PMF count 21 days after Cy treatment ([1]; 8-week-old mice, single dose Cy 150 mg/kg, with or without Tem 5 mg/kg 5 doses, FIG. 3A): 122.5±1.7
ratio between growing and dormant follicles ([1]; 3 days after Cy 150 mg/kg, with or without Tem, FIG. 3C): 0.66
number of PMFs three weeks after treatment ([1]; Cy 150 mg/kg, with or without Tem and/or rAMH (5 μg/mouse, 5 doses), FIG. 4): 68.5±2.69
PMFs 3 days after Cy treatment [1, 6]: 101.6±8.9
total number of growing follicles 3 days after Cy treatment [1, 6]: 65.6±5.2
PMF loss ([1]; three weeks after Cy 150 mg/kg, with or without co-treatment, FIG. 4): 52%
Granulosa cells in primary follicles, Mild proliferation (primary follicles; Ki-67, 1-2 granulosa cells stained, ovaries removed 24 hours after Cy 150 mg/kg or PBS): 22%
Granulosa cells in primary follicles, Extensive proliferation (primary follicles; Ki-67, 3 or more granulosa cells stained, ovaries removed 24 hours after Cy 150 mg/kg or PBS): 5%
primary follicles classified as proliferating (either mild or extensive proliferation) (primary follicles; Ki-67, 24 hours after Cy, alone or co-treated): 32%
Granulosa cells in primary follicles, No proliferation (primary follicles; Ki-67, ovaries removed 24 hours after Cy 150 mg/kg or PBS): 73%
relative band intensity of phosphorylated rpS6 (prpS6/rpS6 ratio) (rpS6): 0.3
relative band intensity of phosphorylated mTOR (pmTOR/mTOR ratio) (mTOR): 0.57
PMF oocytes stained positive for cPARP (apoptosis) (PMF oocytes [3]): 14%
